Test results published in the supplement of paper PMC11061612.

Legend:
Test in all cases: combination Emax (second highest fraction inhibited in the dose matrix, 72 h); higher = more inhibition; extreme values may be limits of the assay
[1] = tested on: TE-8 (Esophageal Squamous Cell Carcinoma)
Procedure, shortened: (§1)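 Cell lines in DMEM/F12 or RPMI with 10% FBS were plated in 1536-well plates, held 24 hours at 37°C, 5% CO2, then given two-drug dose matrices for 72 hours (DMSO typically 0.2%). Viability was read by CellTiter-Glo 2.0 luminescence and scaled as inhibition from 0 (vehicle wells) to 1 (blank wells). Combination Emax is the second-highest inhibition in the matrix; Bliss excess is observed combination effect minus expected EA + EB − EA·EB, EA and EB being single-agent effects.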

[2] = tested on: RKN (Other Solid Carcinomas)
Procedure, shortened: as §1

[3] = tested on: OPM-2 (Plasma Cell Myeloma)
Procedure, shortened: as §1

[4] = tested on: FADU (Head and Neck Carcinoma)
Procedure, shortened: as §1

[5] = tested on: NCI-H23 (Lung Adenocarcinoma)
Procedure, shortened: as §1

[6] = tested on: SK-PN-DW (Other Solid Carcinomas)
Procedure, shortened: as §1

[7] = tested on: OAW-42 (Ovarian Carcinoma)
Procedure, shortened: as §1

[8] = tested on: 23132-87 (Gastric Carcinoma)
Procedure, shortened: as §1

SF539 (Glioblastoma) = tested on: SF539 (Glioblastoma)
Procedure, shortened: as §1

[9] = tested on: LK-2 (Squamous Cell Lung Carcinoma)
Procedure, shortened: as §1

GB-1 (Glioblastoma) = tested on: GB-1 (Glioblastoma)
Procedure, shortened: as §1

[10] = tested on: LXF-289 (Lung Adenocarcinoma)
Procedure, shortened: as §1

[11] = tested on: HCT-15 (Colorectal Carcinoma)
Procedure, shortened: as §1

WM278 (Melanoma) = tested on: WM278 (Melanoma)
Procedure, shortened: as §1

[12] = tested on: HEC-1 (Endometrial Carcinoma)
Procedure, shortened: as §1

IST-MES1 (Mesothelioma) = tested on: IST-MES1 (Mesothelioma)
Procedure, shortened: as §1

[13] = tested on: L-1236 (Hodgkin's Lymphoma)
Procedure, shortened: as §1

[14] = tested on: SU-DHL-10 (B-Cell Non-Hodgkin's Lymphoma)
Procedure, shortened: as §1

LN-229 (Glioblastoma) = tested on: LN-229 (Glioblastoma)
Procedure, shortened: as §1

[15] = tested on: SHP-77 (Small Cell Lung Carcinoma)
Procedure, shortened: as §1

In the case of CC(=O)c1c(C)c2cnc(Nc3ccc(N4CCNCC4)cn3)nc2n(C2CCCC2)c1=O [Palbociclib] + Cn1cnc2c(F)c(Nc3ccc(Br)cc3Cl)c(C(=O)NOCCO)cc21 [Selumetinib] (first compound max 10 µM, 7x7, partner max 10 µM), the “combination Emax” value [1] is reported as 0.383, the “combination Emax” value [2] is reported as 0.399 and the “combination Emax” value [3] is reported as 0.448. For the same compound, the “combination Emax” value [4] was 0.412, the “combination Emax” value [5] was 0.387 and the “combination Emax” value [6] was 0.261. The “combination Emax” value [7] was 0.168, the “combination Emax” value [8] was 0.128 and the “combination Emax” value (SF539 (Glioblastoma)) was 0.336. The “combination Emax” value [9] was 0.5, the “combination Emax” value (GB-1 (Glioblastoma)) was 0.275 and the “combination Emax” value [10] was 0.297. The “combination Emax” value [11] was 0.523, the “combination Emax” value (WM278 (Melanoma)) was 0.574 and the “combination Emax” value [12] was 0.056. For the same compound, the “combination Emax” value (IST-MES1 (Mesothelioma)) was 0.334, the “combination Emax” value [13] was 0.658 and the “combination Emax” value [14] was 0.997. For the same compound, the “combination Emax” value (LN-229 (Glioblastoma)) was 0.277 and the “combination Emax” value [15] was 0.527.

Cn1cnc2c(F)c(Nc3ccc(Br)cc3Cl)c(C(=O)NOCCO)cc21 [Selumetinib] + C[C@@H]1COCCN1C2=NC(=NC(=C2)C3(CC3)[S@](=N)(=O)C)C4=C5C=CNC5=NC=C4 [AZD6738] (first compound max 10 µM, 7x7, partner max 10 µM) was tested, and the “combination Emax” value [1] was 0.495, the “combination Emax” value [2] was 0.45 and the “combination Emax” value [3] was 0.847. The “combination Emax” value [4] was 0.404, the “combination Emax” value [5] was 0.874 and the “combination Emax” value [6] was 0.915. The “combination Emax” value [7] was 0.507, the “combination Emax” value [8] was 0.429 and the “combination Emax” value (SF539 (Glioblastoma)) was 0.855. For the same compound, the “combination Emax” value [9] was 0.39, the “combination Emax” value (GB-1 (Glioblastoma)) was 0.337 and the “combination Emax” value [10] was 0.591. The “combination Emax” value [11] was 0.753, the “combination Emax” value (WM278 (Melanoma)) was 0.587 and the “combination Emax” value [12] was 0.298. For the same compound, the “combination Emax” value (IST-MES1 (Mesothelioma)) was 0.269, the “combination Emax” value [13] was 0.839 and the “combination Emax” value [14] was 0.911. The “combination Emax” value (LN-229 (Glioblastoma)) was 0.552 and the “combination Emax” value [15] was 0.569.

For COc1nnc2ccc(N3CCC(c4ccc(OCCN5CCN(C)C(=O)[C@H]5C)cc4)CC3)nn12 [AZD5153] + CC1(C)CCC(CN2CCN(c3ccc(C(=O)NS(=O)(=O)c4ccc(NCC5CCOCC5)c([N+](=O)[O-])c4)c(Oc4cnc5[nH]ccc5c4)c3)CC2)=C(c2ccc(Cl)cc2)C1 [Venetoclax] (first compound max 1 µM, 7x7, partner max 1 µM), the “combination Emax” value [1] was 0.491, the “combination Emax” value [2] was 0.485 and the “combination Emax” value [3] was 1. The “combination Emax” value [4] was 0.521, the “combination Emax” value [5] was 0.651 and the “combination Emax” value [6] was 0.482. For the same compound, the “combination Emax” value [7] was 0.35, the “combination Emax” value [8] was 0.141 and the “combination Emax” value (SF539 (Glioblastoma)) was 0.604. The “combination Emax” value [9] was 0.396, the “combination Emax” value (GB-1 (Glioblastoma)) was 0.256 and the “combination Emax” value [10] was 0.646. The “combination Emax” value [11] was 0.724, the “combination Emax” value (WM278 (Melanoma)) was 0.447 and the “combination Emax” value [12] was 0.602. The “combination Emax” value (IST-MES1 (Mesothelioma)) was 0.591, the “combination Emax” value [13] was 0.997 and the “combination Emax” value [14] was 1. For the same compound, the “combination Emax” value (LN-229 (Glioblastoma)) was 0.309 and the “combination Emax” value [15] was 0.405.

NC1(C(=O)N[C@@H](CCO)c2ccc(Cl)cc2)CCN(c2ncnc3[nH]ccc23)CC1 [Capivasertib] + Cn1cnc2c(F)c(Nc3ccc(Br)cc3Cl)c(C(=O)NOCCO)cc21 [Selumetinib] (first compound max 10 µM, 7x7, partner max 10 µM) was tested, and the “combination Emax” value [1] was 0.624, the “combination Emax” value [2] was 0.479 and the “combination Emax” value [3] was 1. The “combination Emax” value [4] was 0.531, the “combination Emax” value [5] was 0.454 and the “combination Emax” value [6] was 0.597. The “combination Emax” value [7] was 0.548, the “combination Emax” value [8] was 0.396 and the “combination Emax” value (SF539 (Glioblastoma)) was 0.68. The “combination Emax” value [9] was 0.467, the “combination Emax” value (GB-1 (Glioblastoma)) was 0.588 and the “combination Emax” value [10] was 0.62. The “combination Emax” value [11] was 0.559, the “combination Emax” value (WM278 (Melanoma)) was 0.722 and the “combination Emax” value [12] was 0.239. For the same compound, the “combination Emax” value (IST-MES1 (Mesothelioma)) was 0.366, the “combination Emax” value [13] was 0.844 and the “combination Emax” value [14] was 1. The “combination Emax” value (LN-229 (Glioblastoma)) was 0.484 and the “combination Emax” value [15] was 0.384.

CC1(C)CCC(CN2CCN(c3ccc(C(=O)NS(=O)(=O)c4ccc(NCC5CCOCC5)c([N+](=O)[O-])c4)c(Oc4cnc5[nH]ccc5c4)c3)CC2)=C(c2ccc(Cl)cc2)C1 [Venetoclax] + Cc1cc2ncnn2cc1Nc1ncc2c(n1)n(C1CCOCC1)c(=O)n2C [AZD7648] (first compound max 1 µM, 7x7, partner max 10 µM) was tested, and the “combination Emax” value [1] was 0.401, the “combination Emax” value [2] was 0.157 and the “combination Emax” value [3] was 0.642. For the same compound, the “combination Emax” value [4] was 0.237, the “combination Emax” value [5] was 0.184 and the “combination Emax” value [6] was 0.856. The “combination Emax” value [7] was 0.425, the “combination Emax” value [8] was 0.152 and the “combination Emax” value (SF539 (Glioblastoma)) was 0.341. The “combination Emax” value [9] was 0.266, the “combination Emax” value (GB-1 (Glioblastoma)) was 0.135 and the “combination Emax” value [10] was 0.163. For the same compound, the “combination Emax” value [11] was 0.229, the “combination Emax” value (WM278 (Melanoma)) was 0.269 and the “combination Emax” value [12] was 0.167. The “combination Emax” value (IST-MES1 (Mesothelioma)) was 0.195, the “combination Emax” value [13] was 0.621 and the “combination Emax” value [14] was 0.249. The “combination Emax” value (LN-229 (Glioblastoma)) was 0.115 and the “combination Emax” value [15] was 0.34.

In the case of NC1(C(=O)N[C@@H](CCO)c2ccc(Cl)cc2)CCN(c2ncnc3[nH]ccc23)CC1 [Capivasertib] + CC(C)n1c(=O)n(C)c2cnc3cc(F)c(-c4ccc(OCCCN5CCCCC5)nc4)cc3c21 [AZD1390] (first compound max 10 µM, 7x7, partner max 0.3 µM), the “combination Emax” value [1] is reported as 0.502, the “combination Emax” value [2] is reported as 0.365 and the “combination Emax” value [3] is reported as 0.931. The “combination Emax” value [4] was 0.221, the “combination Emax” value [5] was 0.297 and the “combination Emax” value [6] was 0.597. The “combination Emax” value [7] was 0.439, the “combination Emax” value [8] was 0.165 and the “combination Emax” value (SF539 (Glioblastoma)) was 0.617. For the same compound, the “combination Emax” value [9] was 0.0982, the “combination Emax” value (GB-1 (Glioblastoma)) was 0.275 and the “combination Emax” value [10] was 0.396. The “combination Emax” value [11] was 0.312, the “combination Emax” value (WM278 (Melanoma)) was 0.316 and the “combination Emax” value [12] was 0.145. For the same compound, the “combination Emax” value (IST-MES1 (Mesothelioma)) was 0.249, the “combination Emax” value [13] was 0.759 and the “combination Emax” value [14] was 1. For the same compound, the “combination Emax” value (LN-229 (Glioblastoma)) was 0.104 and the “combination Emax” value [15] was 0.226.
